Assay results as given in US20170290774A1, “NEUROKININ-1 RECEPTOR ANTAGONIST COMPOSITION FOR TREATMENT OF DISEASES AND CONDITIONS OF THE RESPIRATORY TRACT” (PLUS VITECH, S.L., priority 2014, published 2017).

Tests used:
TNF-α = test: Immunohistochemistry of TNF-α in respiratory tract tissue of sodium hypochlorite aerosol-treated rabbits; format: in vivo, New Zealand albino rabbits
Excerpt: (§1) It is known that the factors TGF-α, TGF-β 1, TGF-β 2, TGF-β 3, SPARC, MMP-3; MMP-7, MMP-9, MMP-11, MMP-13 and MMP-14, TGF-β, NF-kB, EGF, MMP-9, VEGF and TNF-α which are produced by lung cells (pneumocytes, fibroblasts and vascular endothelial cells) and inflammatory cells (macrophages, lymphocytes and polymorphonuclear leukocytes) are involved in the pathophysiology and development of said respiratory tract diseases. […] Herein, 27 New Zealand albino rabbits (New Zealand White Rabbit) with an initial average weight about 3 kg were used in this example. All subjects were administered an aerosol of a solution consisting of a mixture of water and sodium hypochlorite (35 g sodium hypochlorite per liter of water) at a rate of 5 mL of said solution by inhalation three times a day for 7 days (days 1 to 7 of experimentation). Subsequently, from days 3 to 7, a group of 3 rabbits (Group 1) was administered an oral dose of 10 mg/kg body weight per day, another group of 3 rabbits (Group 2) was administered an oral dose of 40 mg/kg body weight per day, a third group (Group 3) was administered an oral dose of 80 mg/kg body weight per day and a fourth group (Group 4) was administered an oral dose of 100 mg/kg body weight per day. […] This mixture was administered as an aerosol by inhalation, also from days 3 to 7, to a group of 3 rabbits (group 5) at a dose of 0.05 mg/kg body weight per day, to another group of three rabbits (Group 6) at a dose of 0.1 mg/kg body weight per day, to another group of three rabbits (Group 7) at a dose of 0.2 mg/kg body weight per day and to another group of three rabbits (Group 8) at a dose of 0.4 mg/kg body weight per day. A placebo consisting only of olive oil was administered from days 3 to 7 to a control group of 3 rabbits (placebo group). In parallel, 3 rabbits were kept under identical conditions but were not administered any treatment nor the aforementioned sodium hypochlorite solution (control group). […] On day 7 of the experiment all animals were euthanized and necropsied. […] Samples were taken at the peripheral level of the lung parenchyma, just below the pleural surface. Tissue samples were also taken from the nasal cavity, pharynx, larynx and bronchi. Immunohistochemistry studies were performed for all samples to evaluate the levels of the markers TGF-α, TGF-β 1, TGF-β 2, TGF-β 3 SPARC, MMP-3; MMP-7, MMP-9, MMP-11, MMP-14, TGF-β, TNF-α and VEGF. In said immunohistochemistry studies, a sample of each sample was dehydrated by treatment with increasing concentrations of ethanol and finally xylene. Subsequently said dried samples were embedded in paraffin, thus creating a block. Said paraffin blocks were cut on a microtome to a thickness of 5 μm, and the resulting sections (slices) were placed on slides suitable for conducting immunohistochemistry techniques. Subsequently, the sections were deparaffinised by immersion in xylene and then rehydrated through immersion in a series of solutions containing decreasing concentrations of ethanol and, finally, water. […] The samples were then allowed to cool to room temperature over 10 minutes. Endogenous peroxidase activity was blocked by treatment with 3% hydrogen peroxide over 30 min at room temperature. […] In order to verify the expression of NK1 receptors, the cell samples were incubated in the presence of anti-NK1 antibodies ([…], Sigma-Aldrich) diluted 1:1000 at 4° C. overnight. After this time they were washed in 0.05M Tris buffer at room temperature. Subsequently, Envision System-HRP (Dako) reagents were added for 30 min at room temperature. Once this time had expired, the samples were again washed with 0.05 M Tris buffer, and immunoreactivity was visualized by light microscopy with a chromogenic solution with 3,3'-diaminobenzidine (DAB+; Dako, USA). In order to differentiate the cell nuclei, these were lightly stained with haematoxylin. Samples that were not incubated with the primary antibody, but wherein this was replaced by a non-immune serum were used as negative controls. […]

TGFβ1 = test: Immunohistochemistry of TGFβ1 in respiratory tract tissue of sodium hypochlorite aerosol-treated rabbits; format: in vivo, New Zealand albino rabbits
Excerpt: as §1

[1] = bronchial tissue, Group 1, oral 10 mg/kg per day
[2] = bronchial tissue, Group 2, oral 40 mg/kg per day
[3] = bronchial tissue, Group 3, oral 80 mg/kg per day
[4] = bronchial tissue, Group 4, oral 100 mg/kg per day
[5] = laryngeal tissue, Group 1, oral 10 mg/kg per day
[6] = laryngeal tissue, Group 2, oral 40 mg/kg per day
[7] = laryngeal tissue, Group 3, oral 80 mg/kg per day
[8] = laryngeal tissue, Group 4, oral 100 mg/kg per day
[9] = laryngeal tissue, Group 5, inhalation 0.05 mg/kg per day
[10] = laryngeal tissue, Group 6, inhalation 0.1 mg/kg per day
[11] = laryngeal tissue, Group 7, inhalation 0.2 mg/kg per day
[12] = laryngeal tissue, Group 8, inhalation 0.4 mg/kg per day
[13] = lung tissue, Group 1, oral 10 mg/kg per day
[14] = lung tissue, Group 2, oral 40 mg/kg per day
[15] = lung tissue, Group 3, oral 80 mg/kg per day
[16] = lung tissue, Group 4, oral 100 mg/kg per day
[17] = lung tissue, Group 5, inhalation 0.05 mg/kg per day
[18] = lung tissue, Group 6, inhalation 0.1 mg/kg per day
[19] = lung tissue, Group 7, inhalation 0.2 mg/kg per day
[20] = lung tissue, Group 8, inhalation 0.4 mg/kg per day
[21] = nasal cavity tissue, Group 1, oral 10 mg/kg per day
[22] = nasal cavity tissue, Group 2, oral 40 mg/kg per day
[23] = nasal cavity tissue, Group 3, oral 80 mg/kg per day
[24] = nasal cavity tissue, Group 4, oral 100 mg/kg per day
[25] = nasal cavity tissue, Group 5, inhalation 0.05 mg/kg per day
[26] = nasal cavity tissue, Group 6, inhalation 0.1 mg/kg per day
[27] = nasal cavity tissue, Group 7, inhalation 0.2 mg/kg per day
[28] = nasal cavity tissue, Group 8, inhalation 0.4 mg/kg per day
[29] = pharyngeal tissue, Group 1, oral 10 mg/kg per day
[30] = pharyngeal tissue, Group 2, oral 40 mg/kg per day
[31] = pharyngeal tissue, Group 3, oral 80 mg/kg per day
[32] = pharyngeal tissue, Group 4, oral 100 mg/kg per day
[33] = pharyngeal tissue, Group 5, inhalation 0.05 mg/kg per day
[34] = pharyngeal tissue, Group 6, inhalation 0.1 mg/kg per day
[35] = pharyngeal tissue, Group 7, inhalation 0.2 mg/kg per day
[36] = pharyngeal tissue, Group 8, inhalation 0.4 mg/kg per day

C[C@@H](OC1OCCN(Cc2nc(=O)[nH][nH]2)C1c1ccc(F)cc1)c1cc(C(F)(F)F)cc(C(F)(F)F)c1 (stereo in doubt) [Aprepitant, 5-([(2R,3S)-2-((R)-1-[3,5-bis(trifluoromethyl)phenyl]ethoxy)-3-(4-fluorophenyl)morpholino]methyl)-1H-1,2,4-triazol-3(2H)-one]
Percent increase in TNF-α with respect to the control group (TNF-α; [1]): 789.45% | Percent increase in TNF-α with respect to the control group (TNF-α; [2]): 580.67% | Percent increase in TNF-α with respect to the control group (TNF-α; [3]): 467.45% | Percent increase in TNF-α with respect to the control group (TNF-α; [4]): 356.34% | % Med G5/C: percent increase in marker TNF-α with respect to the control group (TNF-α; bronchial tissue, Group 5): 673.34% | % Med G6/C: percent increase in marker TNF-α with respect to the control group (TNF-α; bronchial tissue, Group 6): 451.23% | % Med G7/C: percent increase in marker TNF-α with respect to the control group (TNF-α; bronchial tissue, Group 7): 325.21% | % Med G8/C: percent increase in marker TNF-α with respect to the control group (TNF-α; bronchial tissue, Group 8): 201.23% | Percent increase in TNF-α with respect to the control group (TNF-α; [5]): 1,078.45% | Percent increase in TNF-α with respect to the control group (TNF-α; [6]): 809.99% | Percent increase in TNF-α with respect to the control group (TNF-α; [7]): 708.73% | Percent increase in TNF-α with respect to the control group (TNF-α; [8]): 509.87% | Percent increase in TNF-α with respect to the control group (TNF-α; [9]): 879.34% | Percent increase in TNF-α with respect to the control group (TNF-α; [10]): 456.34% | Percent increase in TNF-α with respect to the control group (TNF-α; [11]): 323.12% | Percent increase in TNF-α with respect to the control group (TNF-α; [12]): 150.34% | Percent increase in TNF-α with respect to the control group (TNF-α; [13]): 859.73% | Percent increase in TNF-α with respect to the control group (TNF-α; [14]): 685.01% | Percent increase in TNF-α with respect to the control group (TNF-α; [15]): 607.15% | Percent increase in TNF-α with respect to the control group (TNF-α; [16]): 463.11% | Percent increase in TNF-α with respect to the control group (TNF-α; [17]): 980.46% | Percent increase in TNF-α with respect to the control group (TNF-α; [18]): 470.69% | Percent increase in TNF-α with respect to the control group (TNF-α; [19]): 218.38% | Percent increase in TNF-α with respect to the control group (TNF-α; [20]): 151.28% | Percent increase in TNF-α with respect to the control group (TNF-α; [21]): 1,411.41% | Percent increase in TNF-α with respect to the control group (TNF-α; [22]): 842.93% | Percent increase in TNF-α with respect to the control group (TNF-α; [23]): 658.65% | Percent increase in TNF-α with respect to the control group (TNF-α; [24]): 418.29% | Percent increase in TNF-α with respect to the control group (TNF-α; [25]): 1,495.60% | Percent increase in TNF-α with respect to the control group (TNF-α; [26]): 736.83% | Percent increase in TNF-α with respect to the control group (TNF-α; [27]): 151.81% | Percent increase in TNF-α with respect to the control group (TNF-α; [28]): 122.23% | Percent increase in TNF-α with respect to the control group (TNF-α; [29]): 1,357.32% | Percent increase in TNF-α with respect to the control group (TNF-α; [30]): 987.63% | Percent increase in TNF-α with respect to the control group (TNF-α; [31]): 789.45% | Percent increase in TNF-α with respect to the control group (TNF-α; [32]): 418.29% | Percent increase in TNF-α with respect to the control group (TNF-α; [33]): 1,532.34% | Percent increase in TNF-α with respect to the control group (TNF-α; [34]): 989.36% | Percent increase in TNF-α with respect to the control group (TNF-α; [35]): 298.67% | Percent increase in TNF-α with respect to the control group (TNF-α; [36]): 167.34% | Percent increase in TGFβ1 with respect to the control group (TGFβ1; [1]): 1,234.56% | Percent increase in TGFβ1 with respect to the control group (TGFβ1; [2]): 984.45% | Percent increase in TGFβ1 with respect to the control group (TGFβ1; [3]): 768.32% | Percent increase in TGFβ1 with respect to the control group (TGFβ1; [4]): 502.23% | % Med G5/C: percent increase in marker TGFβ1 with respect to the control group (TGFβ1; bronchial tissue, Group 5): 1,103.34% | % Med G6/C: percent increase in marker TGFβ1 with respect to the control group (TGFβ1; bronchial tissue, Group 6): 708.45% | % Med G7/C: percent increase in marker TGFβ1 with respect to the control group (TGFβ1; bronchial tissue, Group 7): 302.34% | % Med G8/C: percent increase in marker TGFβ1 with respect to the control group (TGFβ1; bronchial tissue, Group 8): 124.37% | Percent increase in TGFβ1 with respect to the control group (TGFβ1; [5]): 1,567.67% | Percent increase in TGFβ1 with respect to the control group (TGFβ1; [6]): 1,278.89% | Percent increase in TGFβ1 with respect to the control group (TGFβ1; [7]): 1,067.78% | Percent increase in TGFβ1 with respect to the control group (TGFβ1; [8]): 988.78% | Percent increase in TGFβ1 with respect to the control group (TGFβ1; [9]): 1,398.78% | Percent increase in TGFβ1 with respect to the control group (TGFβ1; [10]): 760.87% | Percent increase in TGFβ1 with respect to the control group (TGFβ1; [11]): 320.34% | Percent increase in TGFβ1 with respect to the control group (TGFβ1; [12]): 102.23% | Percent increase in TGFβ1 with respect to the control group (TGFβ1; [13]): 1,277.48% | Percent increase in TGFβ1 with respect to the control group (TGFβ1; [14]): 990.28% | Percent increase in TGFβ1 with respect to the control group (TGFβ1; [15]): 858.27% | Percent increase in TGFβ1 with respect to the control group (TGFβ1; [16]): 759.25% | Percent increase in TGFβ1 with respect to the control group (TGFβ1; [17]): 1,166.88% | Percent increase in TGFβ1 with respect to the control group (TGFβ1; [18]): 492.89% | Percent increase in TGFβ1 with respect to the control group (TGFβ1; [19]): 270.24% | Percent increase in TGFβ1 with respect to the control group (TGFβ1; [20]): 123.01% | Percent increase in TGFβ1 with respect to the control group (TGFβ1; [21]): 2,191.33% | Percent increase in TGFβ1 with respect to the control group (TGFβ1; [22]): 1,562.26% | Percent increase in TGFβ1 with respect to the control group (TGFβ1; [23]): 1,491.16% | Percent increase in TGFβ1 with respect to the control group (TGFβ1; [24]): 1,373.96% | Percent increase in TGFβ1 with respect to the control group (TGFβ1; [25]): 2,065.52% | Percent increase in TGFβ1 with respect to the control group (TGFβ1; [26]): 745.49% | Percent increase in TGFβ1 with respect to the control group (TGFβ1; [27]): 480.80% | Percent increase in TGFβ1 with respect to the control group (TGFβ1; [28]): 138.39% | Percent increase in TGFβ1 with respect to the control group (TGFβ1; [29]): 2,198.45% | Percent increase in TGFβ1 with respect to the control group (TGFβ1; [30]): 1,562.45% | Percent increase in TGFβ1 with respect to the control group (TGFβ1; [31]): 1,208.45% | Percent increase in TGFβ1 with respect to the control group (TGFβ1; [32]): 1,001.31% | Percent increase in TGFβ1 with respect to the control group (TGFβ1; [33]): 1,804.23% | Percent increase in TGFβ1 with respect to the control group (TGFβ1; [34]): 1,220.34% | Percent increase in TGFβ1 with respect to the control group (TGFβ1; [35]): 609.67% | Percent increase in TGFβ1 with respect to the control group (TGFβ1; [36]): 121.89%
